EC50, AC50 and IC50 data for 31 compounds are collected here from ChEMBL document CHEMBL1201862, “PubChem BioAssay data set” (2004).

Test [1] can be described thus: Luminescence Cell-Based Dose Confirmation HTS to Identify Inhibitors of Platelet Dense Granule Release. [Related pubchem assays: 1663 (Primary HTS), 1678 (Summary of Project)]. It counts as functional.
For test [2], the target named is Luciferin 4-monooxygenase (Photinus pyralis, UniProt P08659). The test can be described thus: firefly luciferase enzyme inhibitors, dose response, biochemical, luminescence (AID 1891).
The target of test [3] is T1, Cytochrome P450 1A2 (Homo sapiens, UniProt P05177).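 Also: PubChem cytochrome P450 panel assay, CYP1A2 panel member.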
T1 sequence (P05177 whole entry): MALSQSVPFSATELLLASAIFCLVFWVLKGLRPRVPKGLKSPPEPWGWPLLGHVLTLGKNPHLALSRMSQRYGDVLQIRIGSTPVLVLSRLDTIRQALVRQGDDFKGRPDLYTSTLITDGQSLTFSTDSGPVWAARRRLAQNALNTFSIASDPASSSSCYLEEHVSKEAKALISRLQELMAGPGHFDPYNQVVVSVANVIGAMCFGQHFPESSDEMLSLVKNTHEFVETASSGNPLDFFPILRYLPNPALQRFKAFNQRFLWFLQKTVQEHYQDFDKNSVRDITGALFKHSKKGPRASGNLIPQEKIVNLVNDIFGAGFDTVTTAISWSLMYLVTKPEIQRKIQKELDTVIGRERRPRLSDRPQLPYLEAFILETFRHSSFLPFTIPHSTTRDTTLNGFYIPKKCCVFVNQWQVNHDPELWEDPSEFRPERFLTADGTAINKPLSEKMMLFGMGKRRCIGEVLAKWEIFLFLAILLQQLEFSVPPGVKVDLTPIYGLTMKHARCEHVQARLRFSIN

The target in test [4] is T2, RNA-binding protein pos-1 (Caenorhabditis elegans, UniProt G5EF15).
T2 sequence (G5EF15 whole entry): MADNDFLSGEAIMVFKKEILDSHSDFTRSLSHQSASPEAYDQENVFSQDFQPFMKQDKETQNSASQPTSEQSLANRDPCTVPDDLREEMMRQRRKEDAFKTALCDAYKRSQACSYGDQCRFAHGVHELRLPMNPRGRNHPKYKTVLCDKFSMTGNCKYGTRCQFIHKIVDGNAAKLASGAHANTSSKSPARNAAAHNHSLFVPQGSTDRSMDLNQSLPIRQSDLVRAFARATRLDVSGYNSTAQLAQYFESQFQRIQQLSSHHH
The test can be described thus: inhibitors of POS-1/mex-3 RNA binding, dose response, biochemical, fluorescence polarization (AID 1964).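 Also: purified POS-1 fused to maltose binding protein made in E. coli; potency of compounds blocking POS-1 binding to fluorescent RNA.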

Test [5] addresses T3, Zinc finger protein mex-5 (Caenorhabditis elegans, UniProt Q9XUB2).
T3 sequence (Q9XUB2 whole entry): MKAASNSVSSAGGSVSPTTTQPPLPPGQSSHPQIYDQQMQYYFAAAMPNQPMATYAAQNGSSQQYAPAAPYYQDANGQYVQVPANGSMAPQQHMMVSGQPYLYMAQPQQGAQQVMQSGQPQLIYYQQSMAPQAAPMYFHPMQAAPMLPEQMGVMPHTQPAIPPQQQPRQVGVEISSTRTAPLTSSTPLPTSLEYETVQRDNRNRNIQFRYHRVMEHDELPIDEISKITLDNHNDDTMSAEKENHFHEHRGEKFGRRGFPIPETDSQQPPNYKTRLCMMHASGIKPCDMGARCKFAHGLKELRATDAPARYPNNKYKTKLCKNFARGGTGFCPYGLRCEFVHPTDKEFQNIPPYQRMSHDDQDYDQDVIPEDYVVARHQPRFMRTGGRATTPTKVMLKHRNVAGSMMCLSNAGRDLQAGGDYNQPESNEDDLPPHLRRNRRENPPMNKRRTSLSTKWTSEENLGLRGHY
The test can be described thus: MEX-5/TCR-2 RNA interaction inhibitors, dose response, biochemical, C. elegans, fluorescence polarization (AID 1960). For orientation: Polarisation of emitted light reports the rotation of a fluorescent probe.

Test [6] addresses Cytochrome P450 2C9 (Homo sapiens, UniProt P11712).
For test [7], the target named is Large T antigen (Simian virus 40, UniProt P03070). Format: functional, Betapolyomavirus macacae.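 Also: Confirmatory-stage PubChem screen for compounds that inhibit SV40 T antigen.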
The target of test [8] is T4, Corticotropin-releasing factor receptor 2/Corticotropin-releasing factor-binding protein (Homo sapiens, UniProt P24387+Q13324).
T4 sequence (Q13324 whole entry): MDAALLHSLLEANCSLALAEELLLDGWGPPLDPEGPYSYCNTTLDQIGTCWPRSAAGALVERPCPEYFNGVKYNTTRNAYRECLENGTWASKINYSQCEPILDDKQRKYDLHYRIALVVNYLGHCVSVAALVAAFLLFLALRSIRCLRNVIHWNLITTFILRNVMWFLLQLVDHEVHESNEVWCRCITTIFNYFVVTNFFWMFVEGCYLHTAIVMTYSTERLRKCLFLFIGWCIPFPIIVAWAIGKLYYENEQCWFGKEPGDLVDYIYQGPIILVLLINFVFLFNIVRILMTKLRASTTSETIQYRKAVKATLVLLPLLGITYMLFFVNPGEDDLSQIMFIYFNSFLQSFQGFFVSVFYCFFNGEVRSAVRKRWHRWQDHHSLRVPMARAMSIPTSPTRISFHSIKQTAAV
T4 sequence (P24387 whole entry): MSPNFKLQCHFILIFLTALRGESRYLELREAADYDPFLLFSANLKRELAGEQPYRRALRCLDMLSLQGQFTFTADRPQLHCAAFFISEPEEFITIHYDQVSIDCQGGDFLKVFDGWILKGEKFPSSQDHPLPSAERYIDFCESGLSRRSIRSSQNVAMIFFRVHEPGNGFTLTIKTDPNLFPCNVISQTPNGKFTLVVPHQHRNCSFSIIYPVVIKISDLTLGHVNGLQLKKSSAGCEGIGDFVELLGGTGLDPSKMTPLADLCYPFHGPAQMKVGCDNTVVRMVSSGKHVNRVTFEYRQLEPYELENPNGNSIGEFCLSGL
Briefly: activators of CRF receptor 2 with binding protein – uHTS hits, confirmation (AID 602473). The following applies: read-out: EC50_Mean. It counts as functional.

The test system of test [9] is INS1. The test can be described thus: beta cell apoptosis inhibitors, cytokine rescue, dose response, luminescence, retest (AID 449756).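 Also: cell death triggered by IL-1 beta plus TNF-alpha plus IFN-gamma mixture; protective hits raise ATP signal compared with cytokine alone wells.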 It counts as functional, cell-based. The following applies: Rattus norvegicus.
The target in test [10] is Cytochrome P450 3A4 (Homo sapiens, UniProt P08684).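 Also: CYP3A4 tested as one member of a cytochrome P450 panel screen.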
For test [11], the target named is Cytochrome P450 2C19 (Homo sapiens, UniProt P33261). The test can be described thus: Cytochrome panel assay with activity outcomes. Panel member name: p450-cyp2c19 Compounds with AC50 equal or less than 10 uM are considered active. Format: functional. As to conditions: read-out: AC50.
Test [12] deals with T5, Heat shock factor protein 1 (Mus musculus, UniProt P38532).
T5 sequence (P38532 whole entry): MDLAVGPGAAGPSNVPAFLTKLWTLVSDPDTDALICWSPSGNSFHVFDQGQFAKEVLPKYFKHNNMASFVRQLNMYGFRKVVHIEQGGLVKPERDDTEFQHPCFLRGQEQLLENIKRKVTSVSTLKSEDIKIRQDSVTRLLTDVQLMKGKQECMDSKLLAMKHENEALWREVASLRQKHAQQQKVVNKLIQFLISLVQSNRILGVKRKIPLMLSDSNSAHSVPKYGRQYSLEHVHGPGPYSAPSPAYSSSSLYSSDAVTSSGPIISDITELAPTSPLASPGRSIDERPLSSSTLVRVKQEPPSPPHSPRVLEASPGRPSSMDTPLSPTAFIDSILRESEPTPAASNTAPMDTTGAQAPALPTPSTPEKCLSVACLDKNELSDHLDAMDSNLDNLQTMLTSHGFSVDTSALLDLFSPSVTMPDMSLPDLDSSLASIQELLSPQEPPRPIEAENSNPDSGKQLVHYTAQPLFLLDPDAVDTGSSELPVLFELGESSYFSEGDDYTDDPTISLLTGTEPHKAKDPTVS
Briefly: HSF1 potentiators in luciferase reporter cells, confirmation, cell-based, NIH3T3, luminescence, dose retest (AID 435004).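 Also: stress induced by proteasome inhibitor MG132 added 30 min after compound; luciferase reporter driven by HSF1 response element in NIH3T3 cells; actives raise luminescence as potentiators of the MG132 stress response.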 Format: functional. A general note: Reporter assays use an easily measured gene product as a stand-in for the process of interest.

A short description of test [13]: control 3'UTR Renilla luciferase suppression, dose response, counter-screen for Shn3 inhibitor project, cell-based, Clone20-Shn3RL, cherry-picked (AID 624133). Format: functional. On the technique in general: Counterscreens check selectivity or assay interference.
The nature of test [14]: HepG2 cell cytotoxicity, dose response, cytotoxicity control for Shn3 inhibitor project, CellTiter-Glo, cherry-picked (AID 624134). It counts as functional, cell-based.
A short description of test [15]: Shn3 3'UTR reporter inhibitors, dose response, cell-based, Clone20 osteoblasts, firefly luciferase, cherry-picked (AID 624132).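 Also: firefly luciferase luminescence from reporter carrying the Shn3 3'UTR in osteoblasts.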 It counts as functional.

Active and inactive are the calls of the source. Bounds are passed on as bounds.

Sequence of Large T antigen (P03070 whole entry): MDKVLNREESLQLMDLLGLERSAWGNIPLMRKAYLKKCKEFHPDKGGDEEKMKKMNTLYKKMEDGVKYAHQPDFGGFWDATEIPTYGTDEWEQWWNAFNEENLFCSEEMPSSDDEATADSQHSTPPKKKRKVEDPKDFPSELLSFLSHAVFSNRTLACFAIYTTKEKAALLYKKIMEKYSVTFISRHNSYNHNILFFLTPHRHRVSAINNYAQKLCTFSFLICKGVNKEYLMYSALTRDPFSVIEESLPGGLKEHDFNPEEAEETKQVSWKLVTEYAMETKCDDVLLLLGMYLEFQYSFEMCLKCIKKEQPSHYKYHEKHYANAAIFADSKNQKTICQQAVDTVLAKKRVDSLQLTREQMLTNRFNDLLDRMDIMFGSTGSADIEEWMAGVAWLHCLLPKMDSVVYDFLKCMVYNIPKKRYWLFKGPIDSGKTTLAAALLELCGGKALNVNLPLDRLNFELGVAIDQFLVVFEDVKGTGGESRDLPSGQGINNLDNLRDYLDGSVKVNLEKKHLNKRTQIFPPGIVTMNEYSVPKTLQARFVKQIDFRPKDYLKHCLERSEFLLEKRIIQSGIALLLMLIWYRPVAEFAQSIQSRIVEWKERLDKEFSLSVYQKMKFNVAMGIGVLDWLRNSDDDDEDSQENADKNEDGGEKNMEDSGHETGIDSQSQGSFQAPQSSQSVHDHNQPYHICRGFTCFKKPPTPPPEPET
Sequence of Cytochrome P450 2C9 (P11712 whole entry): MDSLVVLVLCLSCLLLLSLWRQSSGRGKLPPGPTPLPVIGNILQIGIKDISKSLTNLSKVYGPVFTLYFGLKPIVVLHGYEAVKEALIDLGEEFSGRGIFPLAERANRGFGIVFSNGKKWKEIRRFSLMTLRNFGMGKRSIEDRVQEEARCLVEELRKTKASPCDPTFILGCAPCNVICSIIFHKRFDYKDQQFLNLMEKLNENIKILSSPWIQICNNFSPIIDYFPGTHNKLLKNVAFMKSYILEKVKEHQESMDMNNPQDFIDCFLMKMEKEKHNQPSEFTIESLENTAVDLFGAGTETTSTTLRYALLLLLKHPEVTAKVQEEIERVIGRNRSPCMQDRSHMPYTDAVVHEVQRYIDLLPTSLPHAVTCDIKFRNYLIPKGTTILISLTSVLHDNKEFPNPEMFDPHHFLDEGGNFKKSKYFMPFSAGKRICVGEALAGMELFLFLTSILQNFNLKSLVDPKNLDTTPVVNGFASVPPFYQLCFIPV
Sequence of Luciferin 4-monooxygenase (P08659 whole entry): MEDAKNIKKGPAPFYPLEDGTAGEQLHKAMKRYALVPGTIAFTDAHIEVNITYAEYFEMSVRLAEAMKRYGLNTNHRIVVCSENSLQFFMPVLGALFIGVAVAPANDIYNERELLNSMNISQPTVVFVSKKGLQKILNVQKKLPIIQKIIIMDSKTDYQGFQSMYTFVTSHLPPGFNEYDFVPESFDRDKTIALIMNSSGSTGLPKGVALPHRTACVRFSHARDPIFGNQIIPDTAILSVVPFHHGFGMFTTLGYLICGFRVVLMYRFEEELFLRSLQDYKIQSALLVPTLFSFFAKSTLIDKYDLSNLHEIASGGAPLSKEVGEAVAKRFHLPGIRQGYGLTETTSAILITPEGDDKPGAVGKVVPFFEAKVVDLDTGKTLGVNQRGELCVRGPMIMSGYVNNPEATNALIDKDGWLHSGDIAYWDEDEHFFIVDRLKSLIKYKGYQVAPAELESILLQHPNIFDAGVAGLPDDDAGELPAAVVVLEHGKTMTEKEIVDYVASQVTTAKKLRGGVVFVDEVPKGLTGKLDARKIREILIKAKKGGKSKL
Sequence of Cytochrome P450 2C19 (P33261 whole entry): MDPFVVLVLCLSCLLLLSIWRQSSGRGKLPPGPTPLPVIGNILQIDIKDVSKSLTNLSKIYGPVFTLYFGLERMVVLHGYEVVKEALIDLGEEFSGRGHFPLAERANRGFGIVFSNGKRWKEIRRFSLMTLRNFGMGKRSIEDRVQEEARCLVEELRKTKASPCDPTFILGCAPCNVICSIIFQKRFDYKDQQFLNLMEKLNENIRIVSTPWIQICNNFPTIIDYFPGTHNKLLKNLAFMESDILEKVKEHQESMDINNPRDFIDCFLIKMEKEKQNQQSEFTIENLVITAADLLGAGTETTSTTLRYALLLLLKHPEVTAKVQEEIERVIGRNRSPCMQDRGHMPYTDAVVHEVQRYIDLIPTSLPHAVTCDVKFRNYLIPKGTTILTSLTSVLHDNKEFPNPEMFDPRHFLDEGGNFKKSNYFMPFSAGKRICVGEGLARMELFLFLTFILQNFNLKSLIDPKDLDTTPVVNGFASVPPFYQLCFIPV
Sequence of Cytochrome P450 3A4 (P08684 whole entry): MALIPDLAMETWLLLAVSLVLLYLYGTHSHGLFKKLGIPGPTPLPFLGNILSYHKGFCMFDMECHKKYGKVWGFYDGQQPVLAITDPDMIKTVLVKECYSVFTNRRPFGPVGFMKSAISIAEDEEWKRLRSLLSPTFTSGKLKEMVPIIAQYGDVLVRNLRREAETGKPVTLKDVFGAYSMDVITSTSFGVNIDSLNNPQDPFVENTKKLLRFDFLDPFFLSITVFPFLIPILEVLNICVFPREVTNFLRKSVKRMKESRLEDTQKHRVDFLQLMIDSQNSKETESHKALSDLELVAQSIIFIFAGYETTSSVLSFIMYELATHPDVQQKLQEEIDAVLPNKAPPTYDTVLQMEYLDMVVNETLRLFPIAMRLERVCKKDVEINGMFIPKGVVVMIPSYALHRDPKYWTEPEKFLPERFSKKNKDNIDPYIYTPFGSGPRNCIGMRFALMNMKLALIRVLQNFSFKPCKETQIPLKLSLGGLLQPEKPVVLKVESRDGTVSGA

`Cn1c(=O)c2c(nc(CN3CCOCC3)n2CC(=O)c2ccccc2)n(C)c1=O`: the EC50 in test [1] is 39 µM (active); in [2] it was > 112 µM (not active). The AC50 is the concentration at which the activity in the assay is half-maximal. Consider `CC(=O)c1c(O)c(C)c(O)c(Cc2c(O)c3c(c(C(=O)/C=C\c4ccccc4)c2O)OC(C)(C)C=C3)c1O`, for which, in test [3], the AC50 was 31.6 µM (inconclusive). For the compound `O=C(OCC(=O)c1ccco1)c1ccc2ncsc2c1`, the EC50 in [4] and in test [5] was > 300 µM (not active) each time. For `COc1cc(Cl)ccc1OCc1cc(C(=O)N2C[C@]3(C)C[C@H]2CC(C)(C)C3)no1`, the EC50 in [1] was > 112 µM (not active); in test [2], 27 µM (active). On to `Cc1c(C(=O)O)cccc1-n1c(C)cc(C=O)c1C`, for which the EC50 in [4] and in test [5] was > 300 µM (not active) throughout.

Consider `CNc1cnn(-c2ccccc2)c(=O)c1Cl`, for which the AC50 in [3] is 28.2 µM (inconclusive); in test [6], 1 µM (inconclusive). For orientation: IC50 means the concentration needed to halve the response being measured. `Cc1ccc(S(=O)(=O)CCC(=O)Oc2ccc3c(C)cc(=O)oc3c2)cc1`: in test [7], the IC50 is 48.6 µM (active). As for `Cc1ccc(-c2sc(-c3ccccc3)nc2CC(=O)Nc2ccccc2F)cc1`, in test [8], the EC50 is > 53 µM (inactive). In [9], the AC50 was 2.27 µM (active). For the compound `CCN1CCc2nc(NC(=O)c3ccc4c(c3)OCCO4)sc2C1`, the AC50 is 3.16 µM (inconclusive) in test [3] and 12.6 µM (inconclusive) in test [6].

Consider `CC(C)CCN1C(=O)c2ccc(-c3nc4ccccc4c(=O)o3)cc2C1=O`, for which the AC50 in [3] was 15.8 µM (inconclusive); in test [6] it was 3.16 µM (inconclusive). For the compound `c1ccc(-c2cccc(N3CC4(CCNCC4)C3)c2)cc1`, in test [3], the AC50 is 12.6 µM (inconclusive). In the case of `CCN1/C(=C2\SC(=S)N(Cc3ccccc3)C2=O)Sc2ccccc21`, the EC50 in [8] was > 53 µM (inactive). In the case of `COc1cc(SC)ccc1C(=O)N1CCN(Cc2ccccc2)CC1`, in test [7], the IC50 is 53.8 µM (active). Regarding `COc1ccc(NC(=O)CN(C)C(=O)CSc2ccc3c(c2)OCCO3)cc1`, the EC50 in test [8] was > 53 µM (inactive). Consider `Cc1ccc(S(=O)(=O)N(CCCN2CCCC2=O)Cc2cc3c(C)ccc(C)c3[nH]c2=O)cc1`, for which the EC50 in test [4] and in test [5] was > 300 µM (not active) in each case. In the case of `COc1ccc(NC(=O)CN2CCC(NC(=O)C3CCCCC3)CC2)c([N+](=O)[O-])c1`, the results for the EC50 in test [4] and in test [5] were 67.9 µM (active) and > 300 µM (not active), respectively. Regarding `COCC(=O)N1CCC[C@@]2(CCN(C(c3ccccc3)c3ccccc3)C2)C1`, the AC50 is 12.6 µM (inconclusive) in test [3] and 10 µM (inconclusive) in test [10]. With `Cc1ccnc(NC(=O)c2ccoc2C)c1`, the figures for the EC50 in test [1] and in [2] were 3.51 µM (active) and 17.5 µM (active), respectively.

As to `CCOC(=O)CC(Nc1nc(N2CCOCC2)nc(N2CCOCC2)n1)c1ccccc1Cl` (stereo unspecified), the AC50 in test [3] was 10 µM (inconclusive); in test [10] it was 25.1 µM (inconclusive). As for `CCOC(=O)C1CCN(C(=O)c2ccc3c(c2)NC(=O)/C(=C\c2ccc(C)cc2)S3)CC1`, the EC50 in test [4] is 7.37 µM (active); in test [5], 30.8 µM (active).

`CCC(C)(C)n1nnnc1C(C(C)C)N(CCCO)Cc1cc2cc(C)ccc2nc1O` (stereo unspecified): the AC50 in test [11] is 25.1 µM (inconclusive); in test [3] it was 15.8 µM (inconclusive).

On to `CCCC[C@H](CC)CNC(=N)NC(=N)NCCCCCCNC(=N)NC(=N)NC[C@@H](CC)CCCC`, for which the AC50 in test [11] is 3.98 µM (inconclusive); in test [3], 15.8 µM (inconclusive); in [6], 20 µM (inconclusive). For `COc1ccc(CC(=O)NNC2=Nc3cccc4cccc2c34)cc1`, the EC50 in test [4] was 119 µM (inconclusive); in test [5], > 150 µM (inconclusive). On to `O=C(Nc1ccccc1O)c1cccc(S(=O)(=O)Nc2ccccc2O)c1`, for which the EC50 in test [12] was > 260 µM (inactive); in test [4], 59.1 µM (active); in [5], 36.2 µM (active).

As to `Cc1cccc(-n2c(C)cc(/C=C3\C(=N)N4N=C(CC(C)C)SC4=NC3=O)c2C)c1`, the EC50 in test [8] was 24.2 µM (active). Turning to `Cc1cc2c(n1-c1ccc(C(=O)O)cc1)CCCCC2`, the IC50 in test [7] was 71.2 µM (active).

As for `CCN1CCN(Cc2ccc(NC(=O)c3cc(NC(=O)c4cncc(-c5cccs5)c4)cc(OC)c3)cc2C(F)(F)F)CC1`, the AC50 in [13] was 27.3 µM (active); in test [14], > 70 µM (inactive); in test [15] it was 9.68 µM (active). As to `CCOC(=O)CC1NC(=O)c2ccccc21` (stereo unspecified), the AC50 in [3] was 28.2 µM (inconclusive). In the case of `NC(Cc1ccc(Cl)cc1)c1csc(NC(=O)NCC2CCCCC2)n1` (stereo unspecified), the AC50 is 9.27 µM (active) in test [13], 11.1 µM (active) in test [14] and 6.58 µM (active) in test [15]. Take `Cc1ccc(CN2CCN(/N=C/C(Br)=C\c3ccccc3)CC2)cc1`: the EC50 in test [8] is > 53 µM (inactive). `Cc1ccc(/C=N/NC(=O)c2nn(C)cc2Cl)cc1`: the EC50 is 16.6 µM (active) in test [1] and 19.9 µM (active) in [2].
